This is an account of results in patent publication US10239825B2, “Ketamine derivatives” (Auckland Uniservices Limited, priority 2013, dated 2019).

Data set [1] deals with adult female Sprague-Dawley rats. Kind of data set: rat infusion study: pedal withdrawal reflex PWR = 1 (analgesic effect). It is filed as in vivo. The note with it: for PWR = 1 Dose, head-to-head ratio to ketamine / PWR = 1 Time, head-to-head ratio to ketamine: ratio compound/ketamine; for PWR = 1 Time: time from onset of i.v. infusion to PWR = 1; for PWR = 1 Dose / minimal effective dose: total drug administered to achieve PWR = 1, i.v. infusion; for minimal effective dose: Rattus norvegicus, iv. As to the method:
(§1) All animal experiments were conducted at the Ruakura Research Centre, Hamilton, New Zealand, using experimental protocols reviewed and approved by the Ruakura Animal Ethics Committee (ethics ref 12604).
(§2) Following acquisition of baseline physiologic parameters (heart rate, respiratory rate, PWR, and righting reflex (RR)) adult female Sprague-Dawley rats of approximately 350-450 g were put under non-traumatic restraint and the marginal vein of the tail was cannulated. Ketamine or a compound of the invention at 10 mg/ml was administered via a minibore extension tube adequately secured to the tail. Infusions were commenced at a rate (weight-adjusted) to deliver 20 mg/kg/min initially (until the pedal withdrawal reflex score PWR=1), then were reduced to a rate of 6.7 mg/kg/min. Infusion rate was then titrated in an up-and-down fashion to maintain dorsal recumbency and a PWR=1 to 10 minutes before cessation. Three rats were used in each study, with each group of rats also acting as their own ketamine control. The order of study drug administration was determined by prior odds/evens randomisation with a recovery interval of at least one hour afforded between experiments. PWR and RR were recorded at 1 minute intervals throughout. The times from cessation of infusion to return of righting reflex (RRR), and from cessation of infusion to the animals displaying independent locomotion (walk) were recorded.
Pedal Withdrawal Reflex (PWR) Scoring:
Nociceptive testing in animals was conducted via 1 second application of constant pressure (firm digital pressure) over the forepaw of the animal. Pedal withdrawal reflex testing is primarily used to assess analgesic effect, and responses are graded accordingly: 0, absent; 1, flicker; 2, moderate withdrawal; 3, fast withdrawal; 4, Fast withdrawal with cry/preceding apnoea (modified from Buitrago, S. et al. J. Amer. Assoc. Lab. Animal. Sci. 2008, 47, 11-17).

Data set [2] has the same test system. Kind of data set: rat infusion study: loss/recovery of righting reflex and walk (anaesthetic effect). The data set is classed as in vivo. The note with it: for LRR Dose, head-to-head ratio to ketamine / LRR Time, head-to-head ratio to ketamine / RRR Time, head-to-head ratio to ketamine / Walk Time, head-to-head ratio to ketamine: ratio compound/ketamine; for Walk Time: time from end of infusion to independent locomotion; for RRR Time: time from end of infusion to recovery of righting reflex; for LRR Time: time from onset of i.v. infusion to loss of righting reflex, 20 mg/kg/min initially; for LRR Dose / minimal effective dose: total drug administered to achieve loss of righting reflex, i.v. infusion; for minimal effective dose: Rattus norvegicus, iv, read-out: LRR Dose. The protocol: as §1, §2
Loss of Righting Reflex (LRR):
This is primarily used to assess anaesthetic hypnotic effect. Righting reflex is judged absent when the rat fails to right from a position of dorsal recumbency to a position of sternal recumbency on three attempts performed in rapid succession. Dose to LRR is termed effective potency.

Broadly, the melting point is the temperature of the solid-liquid transition.

Take `CCCOC(=O)CCCNC1(c2ccccc2Cl)CCCCC1=O.Cl` (racemic) [rac-C3nPr, N-Propyl 4-((1-(2-chlorophenyl)-2-oxocyclohexyl)amino)butanoate Hydrochloride]: in data set [1], the “PWR = 1 Dose, head-to-head ratio to ketamine” value was found to be 7.46; the “PWR = 1 Time, head-to-head ratio to ketamine” value is on record as 6.64; the “PWR = 1 Time” value turned out to be 558 ± 42 s; the “PWR = 1 Dose” value worked out at 209 ± 20 mg/kg. In data set [2], the “LRR Dose, head-to-head ratio to ketamine” value is listed as 5.95; the “LRR Time, head-to-head ratio to ketamine” value was 4.77; the “RRR Time, head-to-head ratio to ketamine” value is listed as 0.012; the “Walk Time, head-to-head ratio to ketamine” value is given as 0.05. Further, in data set [2], the “Walk Time” value was determined as 65 ± 33 s, the “RRR Time” value is 10 ± 5.5 s, the “LRR Time” value stood at 329 ± 106 s and the “LRR Dose” value is 137 ± 48 mg/kg.
For the compound `CCCOC(=O)CCCCNC1(c2ccccc2Cl)CCCCC1=O.Cl` (racemic) [rac-C4nPr, N-Propyl 5-((1-(2-chlorophenyl)-2-oxocyclohexyl)amino)pentanoate Hydrochloride], in data set [1], the “PWR = 1 Dose, head-to-head ratio to ketamine” value was found to be 3.19; the “PWR = 1 Time, head-to-head ratio to ketamine” value was 3.60; the “PWR = 1 Time” value amounted to 277 ± 97 s; the “PWR = 1 Dose” value was determined as 83 ± 34 mg/kg. Also, in data set [2], the “LRR Dose, head-to-head ratio to ketamine” value is 3.56; the “LRR Time, head-to-head ratio to ketamine” value stood at 4.17; the “RRR Time, head-to-head ratio to ketamine” value turned out to be 0.05; the “Walk Time, head-to-head ratio to ketamine” value is given as 0.08. In addition, in data set [2], the “Walk Time” value amounted to 90 ± 30 s, the “RRR Time” value was 45 ± 15 s, the “LRR Time” value stood at 271 ± 97 s and the “LRR Dose” value turned out to be 82 ± 34 mg/kg.
Consider `CC(C)OC(=O)CCN[C@@]1(c2ccccc2Cl)CCCCC1=O.Cl` [(R)-C2iPr, (R)-Isopropyl 3-((1-(2-chlorophenyl)-2-oxocyclohexyl)amino)propanoate Hydrochloride], for which the melting point fell in the range of 216 to 219 °C. Moreover, in data set [1], the minimal effective dose was found to be 82 mg/kg; the “PWR = 1 Dose, head-to-head ratio to ketamine” value is given as 3.15; the “PWR = 1 Time, head-to-head ratio to ketamine” value was 2.75; the “PWR = 1 Time” value came out at 190 s. In addition, in data set [2], the minimal effective dose came to 71 mg/kg; the “LRR Dose, head-to-head ratio to ketamine” value was 2.96; the “LRR Time, head-to-head ratio to ketamine” value came to 3.20; the “Walk Time, head-to-head ratio to ketamine” value came to 0.06. In data set [2], the “Walk Time” value was determined as 900 s, the “RRR Time” value amounted to 0 s and the “LRR Time” value was found to be 170 s.
Regarding `CC(C)OC(=O)CCCNC1(c2ccccc2Cl)CCCCC1=O.Cl` (racemic) [rac-C3iPr, Isopropyl 4-((1-(2-chlorophenyl)-2-oxocyclohexyl)amino)butanoate hydrochloride], the melting point was in the range of 167 to 169 °C. In data set [1], the minimal effective dose worked out at 66 ± 17 mg/kg; the “PWR = 1 Dose, head-to-head ratio to ketamine” value was 2.36; the “PWR = 1 Time, head-to-head ratio to ketamine” value turned out to be 2.29; the “PWR = 1 Time” value came out at 192 ± 47 s. Besides, in data set [2], the minimal effective dose came to 42 ± 9 mg/kg; the “LRR Dose, head-to-head ratio to ketamine” value was determined as 1.83; the “LRR Time, head-to-head ratio to ketamine” value is 1.81; the “RRR Time, head-to-head ratio to ketamine” value worked out at 0.042. Further, in data set [2], the “Walk Time, head-to-head ratio to ketamine” value was 0.08; the “Walk Time” value came to 110 ± 45 s; the “RRR Time” value is 37 ± 22 s; the “LRR Time” value was 125 ± 21 s.
For `CCCOC(=O)CCNC1(c2ccccc2Cl)CCCCC1=O.Cl` (racemic) [rac-C2nPr, N-Propyl 3-((1-(2-chlorophenyl)-2-oxocyclohexyl)amino)propanoate Hydrochloride], in data set [1], the “PWR = 1 Dose, head-to-head ratio to ketamine” value was 6.48; the “PWR = 1 Time, head-to-head ratio to ketamine” value turned out to be 6.67; the “PWR = 1 Time” value is 420 ± 180 s; the “PWR = 1 Dose” value is on record as 136 ± 67 mg/kg. For the same compound, in data set [2], the “LRR Dose, head-to-head ratio to ketamine” value is 7.28; the “LRR Time, head-to-head ratio to ketamine” value is on record as 7.92; the “Walk Time” value turned out to be 0 s; the “RRR Time” value amounted to 0 s. In data set [2], the “LRR Time” value amounted to 404 ± 196 s and the “LRR Dose” value is 131 ± 62 mg/kg.
`COC(=O)CCCCNC1(c2ccccc2Cl)CCCCC1=O.Cl` (racemic) [rac-C4Me, Rac-Methyl 5-((1-(2-chlorophenyl)-2-oxocyclohexyl)amino)pentanoate Hydrochloride]: in data set [1], the minimal effective dose was 44 ± 10 mg/kg; the “PWR = 1 Dose, head-to-head ratio to ketamine” value worked out at 2.00; the “PWR = 1 Time, head-to-head ratio to ketamine” value was determined as 1.53; the “PWR = 1 Time” value turned out to be 124 ± 21 s. Further, in data set [2], the minimal effective dose turned out to be 34 ± 7 mg/kg; the “LRR Dose, head-to-head ratio to ketamine” value amounted to 1.70; the “LRR Time, head-to-head ratio to ketamine” value came to 1.31; the “RRR Time, head-to-head ratio to ketamine” value came out at 0.090. Further, in data set [2], the “Walk Time, head-to-head ratio to ketamine” value came out at 0.086; the “Walk Time” value was 126 ± 32 s; the “RRR Time” value was found to be 99 ± 16 s; the “LRR Time” value worked out at 92 ± 14 s. In data set [2] (rat infusion study, discussion), the “properties of racemate versus enantiomer (in words)” value was “broadly equivalent properties”.
In the case of `COC(=O)CCCCN[C@]1(c2ccccc2Cl)CCCCC1=O.Cl` [(S)-C4Me, (S)-Methyl 5-((1-(2-chlorophenyl)-2-oxocyclohexyl)amino)pentanoate Hydrochloride], in data set [1], the “PWR = 1 Dose, head-to-head ratio to ketamine” value was 1.76 and the “PWR = 1 Time, head-to-head ratio to ketamine” value is 1.81. Also, the “properties of racemate versus enantiomer (in words)” value in data set [2] (rat infusion study, discussion) is “broadly equivalent properties”. Also, in data set [2], the “LRR Dose, head-to-head ratio to ketamine” value is given as 1.80; the “LRR Time, head-to-head ratio to ketamine” value was determined as 1.94; the “RRR Time, head-to-head ratio to ketamine” value is listed as 0.07; the “Walk Time, head-to-head ratio to ketamine” value stood at 0.51.
The compound `CC(=O)OCCCNC1(c2ccccc2Cl)CCCCC1=O.Cl` (racemic) [rac-C3OAc, Rac-3-((1-(2-Chlorophenyl)-2-oxocyclohexyl)amino)propyl Acetate Hydrochloride] came in with a melting point of 180 to 183 °C.
On to `CCOC(=O)CCN[C@]1(c2ccccc2Cl)CCCCC1=O.Cl` [(S)-C2Et, (S)-Ethyl 3-((1-(2-chlorophenyl)-2-oxocyclohexyl)amino) propanoate Hydrochloride], for which, in data set [1], the “PWR = 1 Dose, head-to-head ratio to ketamine” value came out at 2.38; the “PWR = 1 Time, head-to-head ratio to ketamine” value worked out at 2.53; the “PWR = 1 Time” value is 185 ± 55 s; the “PWR = 1 Dose” value came to 62 ± 20 mg/kg. In data set [2] (rat infusion study, discussion), the “potency (in words)” value was “only half as potent” and the “recovery (in words)” value was “faster recoveries than the corresponding racemates”. In data set [2], the “LRR Dose, head-to-head ratio to ketamine” value came to 2.95; the “LRR Time, head-to-head ratio to ketamine” value was 3.22; the “RRR Time, head-to-head ratio to ketamine” value is 0.05; the “Walk Time, head-to-head ratio to ketamine” value is 0.04. Besides, in data set [2], the “Walk Time” value is 80 ± 8 s, the “RRR Time” value is 62 ± 8 s, the “LRR Time” value was 171 ± 54 s and the “LRR Dose” value is 59 ± 19 mg/kg.
For the compound `CC(=O)OCCCN[C@]1(c2ccccc2Cl)CCCCC1=O.Cl` [(S)-C3OAc, (S)-3-((1-(2-Chlorophenyl)-2-oxocyclohexyl)amino)propyl Acetate Hydrochloride], in data set [1], the minimal effective dose was 34 ± 1 mg/kg; the “PWR = 1 Dose, head-to-head ratio to ketamine” value came out at 1.10; the “PWR = 1 Time, head-to-head ratio to ketamine” value is 1.12; the “PWR = 1 Time” value is 104 ± 7 s. Also, in data set [2], the minimal effective dose is 26 ± 3 mg/kg; the “LRR Dose, head-to-head ratio to ketamine” value turned out to be 1.30; the “LRR Time, head-to-head ratio to ketamine” value was determined as 1.37; the “RRR Time, head-to-head ratio to ketamine” value is on record as 0.65. For the same compound, in data set [2], the “Walk Time, head-to-head ratio to ketamine” value is on record as 0.51; the “Walk Time” value was 983 ± 93 s; the “RRR Time” value turned out to be 566 ± 30 s; the “LRR Time” value amounted to 81 ± 10 s. For the same compound, the “recovery, fold faster than ketamine” value in data set [2] (after discontinuation of infusion) is 1.5-2 fold. The “potency (in words)” value in data set [2] (rat infusion study, discussion) was “about as potent as ketamine”.
